Earlier results as cited in patent publication US7996156B2, “Methods for predicting properties of molecules” (priority 2002, dated 2011).

Key:
estrogen receptor = target: T1, estrogen receptor (Rattus norvegicus, UniProt P06211); details: background statement; cited from earlier work
T1 construct: in rat uterine cytosol, which was obtained from ovariectomized uteri of Sprague-Dawley rats; from tissue; host or cells: uterine cytosol of ovariectomized Sprague-Dawley rats
T1 sequence (P06211 1-600): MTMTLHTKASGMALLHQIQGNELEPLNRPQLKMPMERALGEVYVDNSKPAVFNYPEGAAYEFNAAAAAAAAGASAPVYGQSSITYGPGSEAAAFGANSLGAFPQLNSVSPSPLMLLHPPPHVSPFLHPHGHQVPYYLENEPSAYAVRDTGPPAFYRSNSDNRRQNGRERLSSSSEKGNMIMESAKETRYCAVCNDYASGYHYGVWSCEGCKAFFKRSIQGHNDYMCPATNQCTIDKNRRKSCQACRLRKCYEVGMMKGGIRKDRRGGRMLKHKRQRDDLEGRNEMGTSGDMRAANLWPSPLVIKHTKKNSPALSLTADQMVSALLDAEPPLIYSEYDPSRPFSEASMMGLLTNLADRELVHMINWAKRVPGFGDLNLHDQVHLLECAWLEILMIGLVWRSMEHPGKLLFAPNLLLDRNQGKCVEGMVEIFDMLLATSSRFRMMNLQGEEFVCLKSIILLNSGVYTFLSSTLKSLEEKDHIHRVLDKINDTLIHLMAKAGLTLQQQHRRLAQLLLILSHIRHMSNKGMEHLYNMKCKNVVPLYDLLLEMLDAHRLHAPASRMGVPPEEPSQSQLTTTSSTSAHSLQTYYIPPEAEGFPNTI

aromatase enzyme = target: T2, aromatase enzyme (Homo sapiens, UniProt P11511); details: 50 steroids of Table 8; cited from earlier work
T2 sequence (P11511 1-503): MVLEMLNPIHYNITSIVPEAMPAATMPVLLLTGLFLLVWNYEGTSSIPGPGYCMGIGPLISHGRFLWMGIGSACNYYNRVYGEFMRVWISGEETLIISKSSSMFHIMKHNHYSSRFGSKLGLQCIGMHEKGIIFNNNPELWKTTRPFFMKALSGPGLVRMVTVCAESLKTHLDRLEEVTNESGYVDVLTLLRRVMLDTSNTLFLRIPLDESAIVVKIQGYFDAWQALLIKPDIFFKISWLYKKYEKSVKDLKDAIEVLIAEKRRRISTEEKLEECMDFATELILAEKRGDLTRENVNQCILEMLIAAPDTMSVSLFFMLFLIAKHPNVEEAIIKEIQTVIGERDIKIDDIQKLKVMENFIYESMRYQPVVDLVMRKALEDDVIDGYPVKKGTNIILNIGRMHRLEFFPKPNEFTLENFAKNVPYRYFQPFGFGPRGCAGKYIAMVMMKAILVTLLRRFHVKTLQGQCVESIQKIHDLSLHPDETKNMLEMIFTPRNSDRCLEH

SMILES	binding to the estrogen receptor (in words) (estrogen receptor)	Binding (experimental binding data, aromatase enzyme) (aromatase enzyme)
C/C(=C(/C)c1ccc(O)cc1)c1ccc(O)cc1 [dimethystilbesterol]	bind strongly	–
C/C=C1\CC2C(CC[C@]3(C)C(=O)CCC23)[C@@]2(C)CCC(=O)C=C12 (some centres unmarked) [compound 50]	–	0.96
